The values that follow come from patent US20240308998A1, “PYRROLOPYRIDONE DERIVATIVES USEFUL IN THE TREATMENT OF CANCER” (Tay Therapeutics Limited, priority 2021, published 2024).

Test [1] deals with T1, BRD4 BD1 (Homo sapiens, UniProt O60885).
T1 construct: HEK293 cells were transfected using NanoLuc-BRD4-BD1 or NanoLuc-BRD4-BD2 fusion vectors; host or cells: HEK293
Nature of the test: NanoBRET bromodomain assay, BRD4 BD1. The format is cell-based. Particulars: HEK293 cells transfected with NanoLuc-BRD4-BD1. As for the experimental part: (§1) HEK293 cells were transfected using NanoLuc-BRD4-BD1 or NanoLuc-BRD4-BD2 fusion vectors and incubated at 37° C. in an atmosphere of 5% CO2 for 20-24 hours. The transfected cells were then dispensed into 96-well plates using 90 μl cell suspension per well containing 2×10^5 cells/ml in Opti-MEM and 1x final concentration of tracer. 90 μl per well of cell suspension without tracer was also dispensed into at least 3 wells as “No tracer control samples” for background correction. Serially diluted test compounds were prepared at 1000× concentration in DMSO and further diluted to 10× concentration in Opti-MEM. 10 μl per well of the serially diluted 10× test compound was added to the 96-well plates containing cells with 1x tracer. Plates were then incubated at 37° C.+5% C02 incubator for 2 hours. Immediately prior to BRET measurements, a 3x solution consisting of 1:166 dilution of Nano-Glo® Substrate plus a 1:500 dilution of Extracellular NanoLuc Inhibitor in Opti-MEM was prepared and 50 μl per well was added to the cells. Donor emission (450 nm) and acceptor emission (610 nm) were measured using PHERAstar (BMG LabTech). For data analysis, the raw BRET ratio was generated and converted to milliBRET units with background correction using the formula: [(Acceptorsample/Donorsample)−(Acceptorno tracer control/Donorno tracer control)]×1000. The mBU data was plotted as a function of compound concentration and IC50s for BRET assay were determined by nonlinear regression analysis of concentration response curves using the GraphPad Prism software.
(In general: Bioluminescence resonance energy transfer reports proximity on the nanometre scale.)

Test [2] addresses T2, BRD4 BD2 (Homo sapiens, UniProt O60885).
T2 construct: HEK293 cells were transfected using NanoLuc-BRD4-BD1 or NanoLuc-BRD4-BD2 fusion vectors; host or cells: HEK293
In words: NanoBRET bromodomain assay, BRD4 BD2. The test is classed as cell-based. Particulars: for Fold selectivity BRD4 BD1/BD2: IC50 BD1/IC50 BD2; for IC50: NanoBRET, HEK293 cells transfected with NanoLuc-BRD4-BD2. As for the experimental part:
as §1
Fold Selectivity Calculated (IC50 BD1/IC50 BD2).

In turn, `Cc1cccc(C)c1Oc1cn(C)c(=O)cc1-c1cn(C)c(=O)c2[nH]c(-c3ccnnc3)cc12` [Example 27, 4-(5-(2,6-dimethylphenoxy)-1-methyl-2-oxo-1,2-dihydropyridin-4-yl)-6-methyl-2-(pyridazin-4-yl)-1,6-dihydro-7H-pyrrolo[2,3-c] pyridin-7-one] registered a half-inhibitory concentration (IC50) in test [1] above 1000 nM. In addition, in test [2], the “Fold selectivity BRD4 BD1/BD2” value was “xx (Fold >50 and ≤200)”; the IC50 was 50 to 200 nM.

In test [1], `Cc1cccc(C)c1Oc1cn(C)c(=O)cc1-c1cn(C)c(=O)c2[nH]c(-c3cc(C(F)(F)F)ccc3F)cc12` [Example 34, 4-(5-(2,6-dimethylphenoxy)-1-methyl-2-oxo-1,2-dihydropyridin-4-yl)-2-(2-fluoro-5-(trifluoromethyl)phenyl)-6-methyl-1,6-dihydro-7H-pyrrolo[2,3-c] pyridin-7-one] registered an IC50 above 1000 nM. Besides, in test [2], the “Fold selectivity BRD4 BD1/BD2” value was “xxx (Fold >200)” and the IC50 is at most 50 nM.

Take `Cc1cccc(C)c1Oc1cn(C)c(=O)cc1-c1cn(C)c(=O)c2[nH]c(-c3c(F)cccc3F)cc12` [Example 37, 2-(2,6-difluorophenyl)-4-(5-(2,6-dimethylphenoxy)-1-methyl-2-oxo-1,2-dihydropyridin-4-yl)-6-methyl-1,6-dihydro-7H-pyrrolo[2,3-c] pyridin-7-one]: the IC50 in test [1] was above 1000 nM; in test [2] it was 50 to 200 nM. Moreover, the “Fold selectivity BRD4 BD1/BD2” value in test [2] is “xx (Fold >50 and ≤200)”.

The molecule `Cc1cc(-c2cc3c(-c4cc(=O)n(C)cc4Oc4c(C)cccc4C)cn(C)c(=O)c3[nH]2)ncn1` [Example 38, 4-(5-(2,6-dimethylphenoxy)-1-methyl-2-oxo-1,2-dihydropyridin-4-yl)-6-methyl-2-(6-methylpyrimidin-4-yl)-1,6-dihydro-7H-pyrrolo[2,3-c] pyridin-7-one] gave an IC50 in test [1] above 1000 nM. Moreover, in test [2], the “Fold selectivity BRD4 BD1/BD2” value is recorded as “xxx (Fold >200)” and the 50% inhibitory concentration (IC50) was at most 50 nM.

With `Cc1cccc(C)c1Oc1cn(C)c(=O)cc1-c1cn(C)c(=O)c2[nH]c(-c3ncccn3)cc12` [Example 39, 4-(5-(2,6-dimethylphenoxy)-1-methyl-2-oxo-1,2-dihydropyridin-4-yl)-6-methyl-2-(pyrimidin-2-yl)-1,6-dihydro-7H-pyrrolo[2,3-c] pyridin-7-one], the figures for the IC50 in test [1] and in test [2] were above 1000 nM and 50 to 200 nM, respectively. Besides, the “Fold selectivity BRD4 BD1/BD2” value in test [2] was “xx (Fold >50 and ≤200)”.

In test [1], `Cc1cccc(C)c1Oc1cn(C2COC2)c(=O)cc1-c1cn(C)c(=O)c2[nH]c(-c3cnn(C)c3C)cc12` [Example 40, 2-(1,5-dimethyl-1H-pyrazol-4-yl)-4-(5-(2,6-dimethylphenoxy)-1-(oxetan-3-yl)-2-oxo-1,2-dihydropyridin-4-yl)-6-methyl-1,6-dihydro-7H-pyrrolo[2,3-c] pyridin-7-one] showed an IC50 of 50 to 500 nM. Also, in test [2], the “Fold selectivity BRD4 BD1/BD2” value is “x (Fold >2 and ≤50)”; the IC50 was at most 50 nM.

Molecule `Cc1cccc(C)c1Oc1cn(C2COC2)c(=O)cc1-c1cn(C)c(=O)c2[nH]c(-c3ccccc3F)cc12` [Example 41, 4-(5-(2,6-dimethylphenoxy)-1-(oxetan-3-yl)-2-oxo-1,2-dihydropyridin-4-yl)-2-(2-fluorophenyl)-6-methyl-1,6-dihydro-7H-pyrrolo[2,3-c] pyridin-7-one] displayed a half-maximal inhibitory concentration (IC50) in test [1] above 1000 nM. In test [2], the “Fold selectivity BRD4 BD1/BD2” value is “xx (Fold >50 and ≤200)”; the IC50 was in the range of 50 to 200 nM.

For `Cc1cccc(C)c1Oc1cn(C2CNC2)c(=O)cc1-c1cn(C)c(=O)c2[nH]c(-c3cn(C(C)C)nc3C)cc12` [Example 42, 4-(1-(azetidin-3-yl)-5-(2,6-dimethylphenoxy)-2-oxo-1,2-dihydropyridin-4-yl)-2-(1-isopropyl-3-methyl-1H-pyrazol-4-yl)-6-methyl-1,6-dihydro-7H-pyrrolo[2,3-c]pyridin-7-one], the IC50 in test [1] is above 1000 nM. Further, in test [2], the “Fold selectivity BRD4 BD1/BD2” value was “xx (Fold >50 and ≤200)”; the IC50 lay within 50 to 200 nM.

As to `Cc1cccc(C)c1Oc1cn(C2CNC2)c(=O)cc1-c1cn(C)c(=O)c2[nH]c(-c3cnn(C(C)C)c3C)cc12` [Example 43, 4-(1-(azetidin-3-yl)-5-(2,6-dimethylphenoxy)-2-oxo-1,2-dihydropyridin-4-yl)-2-(1-isopropyl-5-methyl-1H-pyrazol-4-yl)-6-methyl-1,6-dihydro-7H-pyrrolo[2,3-c] pyridin-7-one], the IC50 in test [1] and in test [2] was above 1000 nM each time. For the same molecule, the “Fold selectivity BRD4 BD1/BD2” value in test [2] was “x (Fold >2 and ≤50)”.

`Cc1cc(-c2cc3c(-c4cc(=O)n(C)cc4Oc4c(C)cccc4C)cn(C)c(=O)c3[nH]2)ccn1` [Example 45, 4-(5-(2,6-dimethylphenoxy)-1-methyl-2-oxo-1,2-dihydropyridin-4-yl)-6-methyl-2-(2-methylpyridin-4-yl)-1,6-dihydro-7H-pyrrolo[2,3-c]pyridin-7-one] returned an IC50 in test [1] of 500 to 1000 nM. Further, in test [2], the “Fold selectivity BRD4 BD1/BD2” value is “x (Fold >2 and ≤50)”; the IC50 was at most 50 nM.

In turn, `Cc1cccc(C)c1Oc1cn(C)c(=O)cc1-c1cn(C)c(=O)c2[nH]c(-c3cc(F)ccc3F)cc12` [Example 46, 2-(2,5-difluorophenyl)-4-(5-(2,6-dimethylphenoxy)-1-methyl-2-oxo-1,2-dihydropyridin-4-yl)-6-methyl-1,6-dihydro-7H-pyrrolo[2,3-c]pyridin-7-one] returned an IC50 in test [1] above 1000 nM. In test [2], the “Fold selectivity BRD4 BD1/BD2” value is “xxx (Fold >200)” and the IC50 was at most 50 nM.

For the molecule `Cc1cccc(C)c1Oc1cn(C)c(=O)cc1-c1cn(C)c(=O)c2[nH]c(-c3ccccc3C#N)cc12` [Example 48, 2-{4-[5-(2,6-dimethylphenoxy)-1-methyl-2-oxopyridin-4-yl]-6-methyl-7-oxo-1H-pyrrolo[2,3-c]pyridin-2-yl}benzonitrile], the IC50 in test [1] was above 1000 nM; in test [2] it was at most 50 nM. Also, the “Fold selectivity BRD4 BD1/BD2” value in test [2] is “xxx (Fold >200)”.

Turning to `Cc1cc(-c2cc3c(-c4cc(=O)n(C)cc4C4CCCC4)cn(C)c(=O)c3[nH]2)n(C)n1` [Example 52, 5-cyclopentyl-4-[2-(2,5-dimethylpyrazol-3-yl)-6-methyl-7-oxo-1H-pyrrolo[2,3-c]pyridin-4-yl]-1-methylpyridin-2-one], the IC50 in test [1] was in the range of 50 to 500 nM. In test [2], the “Fold selectivity BRD4 BD1/BD2” value is “x (Fold >2 and ≤50)”; the IC50 was at most 50 nM.

Take `CC(C)n1cc(-c2cc3c(-c4cc(=O)n(C)cc4C4CCCC4)cn(C)c(=O)c3[nH]2)cn1` [Example 53, 4-(5-cyclopentyl-1-methyl-2-oxo-1,2-dihydropyridin-4-yl)-2-(1-isopropyl-1H-pyrazol-4-yl)-6-methyl-1,6-dihydro-7H-pyrrolo[2,3-c]pyridin-7-one]: the results for the IC50 in test [1] and in test [2] were 50 to 500 nM and at most 50 nM, respectively. The “Fold selectivity BRD4 BD1/BD2” value in test [2] is “xx (Fold >50 and ≤200)”.

Turning to `Cc1cc(-c2cc3c(-c4cc(=O)n(C)cc4C4CCCC4)cn(C)c(=O)c3[nH]2)cc(C)n1` [Example 54, 5-cyclopentyl-4-[2-(2,6-dimethylpyridin-4-yl)-6-methyl-7-oxo-1H-pyrrolo[2,3-c]pyridin-4-yl]-1-methylpyridin-2-one], the IC50 in test [1] was 50 to 500 nM; in test [2], at most 50 nM. The “Fold selectivity BRD4 BD1/BD2” value in test [2] was “xx (Fold >50 and ≤200)”.

The IC50 is the midpoint of a concentration-inhibition curve. Low readings indicate inhibition by little substance, high ones a need for much substance.
